Results on 11 molecules are retold here after paper PMC6856721, “Discovery of a Novel DNA Gyrase-Targeting Antibiotic through the Chemical Perturbation of Streptomyces venezuelae Sporulation” (Cell Chemical Biology, 2019).

For one assay, the system named is S. venezuelae. Nature of the assay: S. venezuelae sporulation inhibition disk diffusion assay (whi phenotype, SEM). The note with it: for Sporulation inhibition: disk with 10 μL antibiotic, 48 h, white halo in sub-MIC region; for Aerial hyphae septation by SEM: lawn immediately adjacent to the zone of inhibition. The class given is cell-based, Streptomyces venezuelae. As to the method:
A lawn of S. venezuelae spores was plated on MYM agar plates and allowed to dry. For the initial screen, 2 μL of each molecule at 2.5 mM was spotted directly to the agar plate. For known antibiotics or follow-up screening, 10 μL of molecule was added to a drug disk, allowed to dry, and placed on the agar plate. The S. venezuelae plate was incubated at 30°C for 48 hours and photographed. The whi phenotype was identified by eye. Hits were selected based on their ability to induce a whi phenotype at sub-inhibitory concentrations and scored by eye on the size of the induced whi region and the zone of inhibition.
To prepare samples for SEM, the agar plate containing a lawn of S. venezuelae was cut at the edge of the zone of inhibition and fixed with 2% glutaraldehyde in 0.1% sodium cacodylate buffer followed by sputter coating with gold. Images were obtained and processed using a FEI XL30 ESEM. The contrast of the resulting images was adjusted to highlight the appearance or lack of spore formation.
(A growth-free zone around the sample is the usual read-out of agar diffusion tests.)

In the next assay the test system is S. aureus. Nature of the assay: Minimum inhibitory concentration, broth dilution, S. aureus strains. The assay is classed as cell-based, Staphylococcus aureus. The note with it: Staphylococcus aureus. As to the method: The minimum inhibitory concentration (MIC) defines the lowest concentration of a compound required to inhibit the growth. A single colony of the bacteria being tested was grown in 5 mL of liquid growth media. Following overnight growth, the culture was diluted 100-fold into fresh media and incubated at 37°C until the cells reached mid-log phase (OD600 of 0.3 to 0.5). The cells were diluted 10,000-fold into fresh media and the MIC determined for each of the strains by adding 2 μL of the diluted compound to 198 μL of the diluted cells in a clear 96-well plate. The plates were incubated at 37°C overnight and the optical density at 600 nm was measured for each well. All MIC assays were performed in triplicate.
Background: Broth dilution looks for growth in wells or tubes with falling amounts of substance.

In another assay the target is T1, S. aureus gyrase (Staphylococcus aureus, UniProt P0A0K8+P20831).
T1 construct: purchased Inspiralis Inc. SAS4001 (supercoiling kit); SAGC001 (cleavage assay kit)
Description: S. aureus gyrase relaxation. The class given is biochemical. The note with it: ATP-independent. How it is done:
1 U of gyrase was incubated with 0.5 μg of supercoiled pBR322 DNA in a 30 μL reaction at 37°C for 60 minutes under the following conditions: 50 mM Tris.HCl (pH 7.5), 5 mM MgCl2,5 mM DTT, 350 mM potassium glutamate, and 0.05 mg/mL albumin. Each reaction was stopped by the addition of 30 μL chloroform/iso-amyl alcohol (24:1) and 20 μl Stop Dye, before being loaded on a 1.0% TAE agarose gel. Gels run at 80 V for 2 hours.

Assay [1] deals with T2, S. aureus gyrase GyrA S84L (Staphylococcus aureus, UniProt P0A0K8+P20831, S84L).
T2 construct: purchased Inspiralis Inc. SAAS84L01
Nature of the assay: Supercoiling inhibition of S. aureus gyrase mutant GyrA S84L. The class given is biochemical. The note with it: S. aureus gyrase. How it is done:
1 U of DNA gyrase was incubated with 0.5 μg of relaxed pBR322 DNA in a 30 μl reaction at 37°C for 30 minutes under the following conditions: 35 mM Tris.HCl (pH 7.5), 24 mM KCl, 4 mM MgCl2, 2 mM DTT, 1.8 mM Spermidine, 1 mM ATP, 6.5% (w/v) glycerol and 0.1 mg/mL BSA. Each reaction was stopped by the addition of 30 μl chloroform/iso-amyl alcohol (24:1) and 20 μl Stop Dye (40% sucrose, 100 mM Tris.HCl (pH 7.5), 10 mM EDTA, 0.5 μg/mL bromophenol blue), before being loaded on a 1.0% TAE (Tris.acetate […], EDTA […]) agarose gel. Gels run at 90 V for 2 hours. Bands were visualized by ethidium staining for 20 minutes and destaining in water for 20 minutes. Gels were scanned using a gel documentation system (GeneGenius, Syngene, Cambridge, UK) and percent inhibition levels obtained with gel scanning software (GeneTools, Syngene, Cambridge,UK).
As for E. coli gyrase except assay conditions were: 40 mM HEPES. KOH (pH 7.6), 10 mM magnesium acetate, 10 mM DTT, 2 mM ATP, 500 mM potassium glutamate, and 0.05 mg/mL BSA. Gels run at 80 V for 3 hours.

[2] abbreviates: ATCC29213, S. aureus parent strain (ATCC 29213), read-out: MIC.
Setting [3] is: EN-7-resistant S. aureus mutants.

Where two headings read alike, the source gives them in different places.

On to `CO[C@H]1/C=C/O[C@@]2(C)Oc3c(C)c(O)c4c(O)c(c(/C=N/N5CCN(C)CC5)c(O)c4c3C2=O)NC(=O)/C(C)=C\C=C\[C@H](C)[C@H](O)[C@@H](C)[C@@H](O)[C@@H](C)[C@H](OC(C)=O)[C@@H]1C` [Rifampicin, rifampicin], for which, in the assay on S. venezuelae, the Sporulation inhibition entry is given as “−” and the “Aerial hyphae septation by SEM” value is given as “septated aerial hyphae”.
Take `O=c1ccc2ncc(=O)n3c2n1C[C@H]3CN1CCC(NCc2cc3c(cn2)OCCC3)CC1` [gepotidacin, reference compound]: the MIC is 0.5 µM in the assay with S. aureus (ATCC29213, S. aureus ATCC 29213 (wild-type, parent strain), read-out: MIC) and 32 µM against S. aureus (EN-7-resistant S. aureus strains with GyrB D437N (mut-7, mut-8)).
bleomycin: the Sporulation inhibition entry in the assay with S. venezuelae is on record as “+”.
As to `CO[C@@H]1[C@@H](OC(N)=O)[C@@H](O)[C@H](Oc2ccc3c(O)c(NC(=O)c4ccc(O)c(CC=C(C)C)c4)c(=O)oc3c2C)OC1(C)C` [novobiocin, reference compound], the Sporulation inhibition entry with S. venezuelae is “+”. Moreover, the MIC in the assay on S. aureus (setting [2]) and in the assay with S. aureus (setting [3]) was 0.06 µg/mL in each case.
Turning to `COc1c(N2C[C@@H]3CCCN[C@@H]3C2)c(F)cc2c(=O)c(C(=O)O)cn(C3CC3)c12` [moxifloxacin, reference compound], the “Inhibition of gyrase-induced DNA relaxation” value on S. aureus gyrase is “inhibit”. The “Susceptibility of gyrase mutant GyrA S84L” value in assay [1] is “less susceptible”.
Consider `Oc1cc(Cl)ccc1Oc1ccc(Cl)cc1Cl` [Triclosan, triclosan], for which the Sporulation inhibition result in the assay with S. venezuelae was “−”.
Turning to `NC[C@H]1O[C@H](O[C@H]2[C@H](O)[C@@H](O[C@H]3O[C@H](CO)[C@@H](O)[C@H](N)[C@H]3O)[C@H](N)C[C@@H]2N)[C@H](O)[C@@H](O)[C@@H]1O` [Kanamycin, kanamycin], in the assay on S. venezuelae, the Sporulation inhibition result was “−” and the “Aerial hyphae septation by SEM” value was “septated aerial hyphae”.
Take `N#CC(C#N)=NNc1cccc(Cl)c1` [CCCP, carbonyl cyanide m-chlorophenyl hydrazone]: the Sporulation inhibition entry in the assay with S. venezuelae is given as “−”.
Turning to `CO[C@@]12[C@H](COC(N)=O)C3=C(C(=O)C(C)=C(N)C3=O)N1C[C@@H]1N[C@@H]12` [Mitomycin C, mitomycin C], in the assay with S. venezuelae, the Sporulation inhibition entry is reported as “+” and the “Aerial hyphae septation by SEM” value is reported as “do not show any aerial hyphae septation”.
`O=C(O)c1cn(C2CC2)c2cc(N3CCNCC3)c(F)cc2c1=O` [ciprofloxacin, reference compound]: in the assay on S. venezuelae, the Sporulation inhibition result is “+”. In addition, the “Aerial hyphae septation by SEM” value with S. venezuelae is recorded as “do not show any aerial hyphae septation”. Also, the MIC with S. aureus (setting [2]) and against S. aureus (setting [3]) was 0.2 µg/mL each time.
For `CN[C@H](CC(C)C)C(=O)N[C@H]1C(=O)N[C@@H](CC(N)=O)C(=O)N[C@H]2C(=O)N[C@H]3C(=O)N[C@H](C(=O)N[C@H](C(=O)O)c4cc(O)cc(O)c4-c4cc3ccc4O)[C@H](O)c3ccc(c(Cl)c3)Oc3cc2cc(c3O[C@@H]2O[C@H](CO)[C@@H](O)[C@H](O)[C@H]2O[C@H]2C[C@](C)(N)[C@H](O)[C@H](C)O2)Oc2ccc(cc2Cl)[C@H]1O` [Vancomycin, vancomycin], the Sporulation inhibition result with S. venezuelae is listed as “−”.

The MIC is the least concentration at which growth counts as inhibited.
